Test results as given in article PMC11062894, “Protein-based bandpass filters for controlling cellular signaling with chemical inputs” (Nature Chemical Biology, 2023).
Where “and” joins values, the source holds several entries; their conditions need not be identical. Equal entries are not always repeated. Entries after “also recorded” stand apart in the source; their conditions may differ. Where two headings read alike, the source gives them in different places.

What was measured:
[1] = target: GEMS receptors with BclXL:LD3 in HEK293T cells (Homo sapiens, UniProt Q07817); format: cell-based
Protocol: HEK293T cells were seeded in a 96-well plate 24 h before transfection. The transfection mix in each well consisted of 3 ng of constitutive human CMV promoter driven mammalian STAT3 expression vector (PhCMV-STAT3-pA), 30 ng of STAT3-induced reporter expression (OStat3-PhCMVmin-SEAP-pA) and 50 ng of expression vectors for each GEMS receptor chain (PSV40-IgK-(drughigh receptor)-EpoRm-IL-6RBm-pA and PSV40-IgK-(druglow receptor-GGGGSX3-LD3)-EpoRm-IL-6RBm-pA). For the specific drughigh receptor and druglow receptor used in the different cellular assays, they are indicated as wild type or with mutations. Then, plasmid DNA was mixed with 50 μl opti-MEM (Thermo Fisher) and 600 ng of polyethyleneimine (Polysciences, catalog no. 24765-1). […]
(§1) SEAP activity (U l^−1) in cell culture supernatants was quantified by kinetic measurements at 405 nm (1 minute per measurement for 30 cycles) of absorbance increase due to phosphatase-mediated hydrolysis of para-nitrophenyl phosphate (pNPP). […]
production of HEK293T cells. […] SEAP quantifications were performed to measure the protein production and WST-8 was used to test the cell proliferation. For cell proliferation assay, WST-8 was added after 24 hours of drug incubation, and measured its absorbance at 450 nm 4 hours later. […]

[2] = target: GEMS receptors with Bcl2:LD3 in HEK293T cells (Homo sapiens, UniProt P10415); test: GEMS SEAP reporter assay, Bcl2:LD3 complex disruption; format: cell-based; parameters: key: SEAP activity in U/L; details: Supp Fig 3a
Protocol: (§2) HEK293T cells were seeded in a 96-well plate 24 h before transfection. The transfection mix in each well consisted of 3 ng of constitutive human CMV promoter driven mammalian STAT3 expression vector (PhCMV-STAT3-pA), 30 ng of STAT3-induced reporter expression (OStat3-PhCMVmin-SEAP-pA) and 50 ng of expression vectors for each GEMS receptor chain (PSV40-IgK-(drughigh receptor)-EpoRm-IL-6RBm-pA and PSV40-IgK-(druglow receptor-GGGGSX3-LD3)-EpoRm-IL-6RBm-pA). For the specific drughigh receptor and druglow receptor used in the different cellular assays, they are indicated as wild type or with mutations. Then, plasmid DNA was mixed with 50 μl opti-MEM (Thermo Fisher) and 600 ng of polyethyleneimine (Polysciences, catalog no. 24765-1). For drug treatment experiments, drugs were added 12 h post-transfection and incubated with cells for 24 h before the SEAP reporter detection assay.
as §1

[3] = tested on: GEMS receptors with CBPnavi (BclXL–LD3 and Bcl2), STAT3-driven SEAP in HEK293T cells; test: GEMS SEAP reporter assay, CBPnavi; format: cell-based
Protocol: as §2, with “Then, plasmid DNA was mixed with 50 μl opti-MEM (Thermo Fisher) and 600 ng of polyethyleneimine (Polysciences, catalog no. 24765-1).” left out
Binding affinities of SPR drug competition assays were calculated using three-parameter nonlinear regression in GraphPad Prism (v.8.3.0). Representative data of cell assays are presented as individual values and mean values (bars). n = 3 refers to biological replicates. All IC50 or EC50 values of cell assays reported were calculated using four-parameter nonlinear regression ± s.d. Bandpass features of cutoff concentrations and Bandwidth90% were estimated based on the curve fitted using bell-shaped curve nonlinear regression in GraphPad Prism (v.8.3.0).

[4] = tested on: LD3; test: SPR drug sensitivity of drug receptor variants (5 µM analyte mixed with 10 µM inhibitor, LD3 immobilized chip); format: binding; details: for drug resistance to venetoclax (binding response to LD3): 5 µM Bcl2 or variant + 10 µM Venetoclax
Protocol: Drug IC50 values for disrupting heterodimers were measured on a Biacore 8K device. A 5 µM portion of analyte was mixed with 10 µM of BclXL or Bcl2 inhibitors according to the analyte. The mixtures of analyte and drug were injected onto the LD3 immobilized channel. […]
(§3) Bcl2high-v(2,4,5) measured by SPR. 5 μM of Bcl2 or indicated variants were mixed with 10 μM of […]

[5] = tested on: LD3; test: SPR assay for protein–protein binding affinities (drug receptor variants over immobilized LD3); parameters: unit not given here; details: Supp Fig 6a
Protocol: SPR measurements were performed on a Biacore 8K device (GE Healthcare). The mutual designed binder (LD3) was immobilized on a CM5 chip (GE Life Science) as a ligand with the concentration at 5 μg ml^−1 for 120 s contact time in pH 4.5 sodium acetate solutions. Serial dilutions of the analytes (BclXL or Bcl2 and their variants) in HBS-EP buffer (10 mM HEPES, 150 mM NaCl, 3 mM EDTA and 0.005% surfactant P20; GE Life Science) were flowed over the immobilized chips. After each injection cycle, surface regeneration was performed using 10 mM NaOH (pH 11.95). Affinities (Kd) were obtained using a steady binding model of the equilibrium model with Biacore 8K evaluation software. […]
Dissociation constant measurement of BclXLhigh-v(1-3) and LD3. Equilibrium curves are fitted using
BclXLhigh-v1 (purple), BclXLhigh-v2 (blue), […]
Supplementary Figure 6: Binding affinities and drug resistances of Bcl2high-v(2,4,5) assessed by
a) Measurement of dissociation constants for Bcl2high-v(2,4,5) and LD3 interactions. Equilibrium curves
as §3

[6] = tested on: GEMS receptors with CBPvene (Bcl2–LD3 and Bcl2high variants), STAT3-driven SEAP in HEK293T cells; test: GEMS SEAP reporter assay, CBPvene (Bcl2high, LD3-v and Bcl2-v variants) with venetoclax; format: cell-based; details: Supp Fig 5c; for behavior of Bcl2high variants screened in CBP constructs: venetoclax exceeding 100 nM

GEMS receptors with Bcl2:LD3 in HEK293T cells, sequence (P10415 whole entry): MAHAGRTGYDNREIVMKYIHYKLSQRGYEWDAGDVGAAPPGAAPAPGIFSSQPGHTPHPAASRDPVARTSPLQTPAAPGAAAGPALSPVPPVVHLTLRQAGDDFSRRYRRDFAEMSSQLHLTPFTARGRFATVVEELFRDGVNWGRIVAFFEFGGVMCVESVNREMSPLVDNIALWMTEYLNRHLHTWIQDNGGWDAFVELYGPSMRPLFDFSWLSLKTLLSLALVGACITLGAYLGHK
GEMS receptors with BclXL:LD3 in HEK293T cells, sequence (Q07817 whole entry): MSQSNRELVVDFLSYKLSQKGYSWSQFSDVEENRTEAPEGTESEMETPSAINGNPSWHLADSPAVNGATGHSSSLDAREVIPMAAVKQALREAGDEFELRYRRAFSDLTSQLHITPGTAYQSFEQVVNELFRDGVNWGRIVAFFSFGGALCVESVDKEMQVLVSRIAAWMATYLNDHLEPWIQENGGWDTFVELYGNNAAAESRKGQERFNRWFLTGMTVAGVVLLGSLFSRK

Compound | drug resistance to venetoclax (binding response to LD3) [4] | SPR equilibrium binding response to LD3 ([5]; head: Venetoclax (nM) 1) | SEAP, screening of Bcl2high variants (raw) ([6]; Venetoclax 0) | SEAP, screening of Bcl2high variants, Normalized ([6]; Venetoclax 0) | SEAP, screening of Bcl2high variants (raw) ([6]; Venetoclax 0.0001) | SEAP, screening of Bcl2high variants, Normalized ([6]; Venetoclax 0.0001) | SEAP, screening of Bcl2high variants (raw) ([6]; Venetoclax 0.001) | SEAP, screening of Bcl2high variants, Normalized ([6]; Venetoclax 0.001) | SEAP, screening of Bcl2high variants (raw) ([6]; Venetoclax 0.01) | SEAP, screening of Bcl2high variants, Normalized ([6]; Venetoclax 0.01) | SEAP, screening of Bcl2high variants (raw) ([6]; Venetoclax 0.1) | SEAP, screening of Bcl2high variants, Normalized ([6]; Venetoclax 0.1) | SEAP, screening of Bcl2high variants (raw) ([6]; Venetoclax 1) | SEAP, screening of Bcl2high variants, Normalized ([6]; Venetoclax 1) | SEAP, screening of Bcl2high variants (raw) ([6]; Venetoclax 10) | SEAP, screening of Bcl2high variants, Normalized ([6]; Venetoclax 10) | SEAP, screening of Bcl2high variants (raw) ([6]; Venetoclax 100) | SEAP, screening of Bcl2high variants, Normalized ([6]; Venetoclax 100) | SEAP, screening of Bcl2high variants (raw) ([6]; Venetoclax 1000) | SEAP, screening of Bcl2high variants, Normalized ([6]; Venetoclax 1000) | further results
CC1(C)CCC(c2ccc(Cl)cc2)=C(CN2CCN(c3ccc(C(=O)NS(=O)(=O)c4ccc(N[C@H](CCN5CCOCC5)CSc5ccccc5)c(S(=O)(=O)C(F)(F)F)c4)cc3)CC2)C1 [Navitoclax] | – | – | – | – | – | – | – | – | – | – | – | – | – | – | – | – | – | – | – | – | more potent activity to BclXL than to Bcl2 [1]: approximately 4.4 fold; dose response (SEAP) ([2]; Navitoclax 1 nM): 217.89 and 244.414 and 201.569; dose response (SEAP) ([2]; Navitoclax 3.18 nM): 251.97 and 247.153 and 223.02; dose response (SEAP) ([2]; Navitoclax 10 nM): 225.391 and 249.837 and 220.973; dose response (SEAP) ([2]; Navitoclax 31.8 nM): 203.543 and 185.176 and 172.987; dose response (SEAP) ([2]; Navitoclax 100 nM): 207.157 and 228.932 and 148.919; dose response (SEAP) ([2]; Navitoclax 318 nM): 189.257 and 207.554 and 159.852; dose response (SEAP) ([2]; Navitoclax 1000 nM): 160.635 and 174.477 and 98.5023; dose response (SEAP) ([2]; Navitoclax 3180 nM): 138.28 and 140.892 and 97.3043; dose response (SEAP) ([2]; Navitoclax 10000 nM): 109.056 and 131.507 and 65.8832; Dip (bell-shaped fit, best-fit value) ([3]; CBPnavi, Fig 3c): 146.8; Plateau1 (bell-shaped fit, best-fit value) ([3]; CBPnavi, Fig 3c): 13.3; Plateau2 (bell-shaped fit, best-fit value) ([3]; CBPnavi, Fig 3c): 20.77; nH1 (bell-shaped fit, best-fit value) ([3]; CBPnavi, Fig 3c): -2.607; nH2 (bell-shaped fit, best-fit value) ([3]; CBPnavi, Fig 3c): -2.347; EC50 ([3]; Homo sapiens, HEK-293T, read-out: EC50_1 (bell-shaped fit, best-fit value)): 66.5 nM; EC50 ([3]; Homo sapiens, HEK-293T, read-out: EC50_2 (bell-shaped fit, best-fit value)): 2850 nM; EC50 ([3]; Homo sapiens, HEK-293T, read-out: EC50 of the ON phase): 65 nM; IC50 ([3]; Homo sapiens, HEK-293T, read-out: IC50 of the OFF phase): 2820 nM
Bcl2: wild-type Bcl2, druglow receptor | completely inhibited | – | – | – | – | – | – | – | – | – | – | – | – | – | – | – | – | – | – | – | –
Bcl2high-v4: Bcl2 variant (G101V) | intermediate binding responses; also recorded: more resistant than Bcl2high-v2 | 2.1472 | 6.603 | 2.711 | 4.145 | 0 | 8.202 | 4.476 | 7.174 | 3.342 | 7.666 | 3.884 | 5.264 | 1.235 | 24.5053 | 22.4596 | 94.7979 | 100 | 68.7379 | 71.253 | SPR equilibrium binding response to LD3 ([5]; head: Venetoclax (nM) 3.9): 10.112; SPR equilibrium binding response to LD3 ([5]; head: Venetoclax (nM) 15.6): 33.8883; SPR equilibrium binding response to LD3 ([5]; head: Venetoclax (nM) 62.5): 70.0059; behavior of Bcl2high variants screened in CBP constructs [6]: sharp decrease
Bcl2high-v5: Bcl2 variant (D103Y) | intermediate binding responses | 0.849 | 2.765 | 3.49 | 2.523 | 2.743 | 3.266 | 5.042 | 2.791 | 3.572 | 1.758 | 0.3721 | 1.638 | 0 | 7.093 | 16.9022 | 33.9111 | 100 | 29.4352 | 86.1311 | SPR equilibrium binding response to LD3 ([5]; head: Venetoclax (nM) 3.9): 3.873; SPR equilibrium binding response to LD3 ([5]; head: Venetoclax (nM) 15.6): 14.2982; SPR equilibrium binding response to LD3 ([5]; head: Venetoclax (nM) 62.5): 37.6477; behavior of Bcl2high variants screened in CBP constructs [6]: sharp decrease
Bcl2high-v7: Bcl2 variant (D103E) | – | – | 6.691 | 0 | 7.426 | 0.7213 | 7.62 | 0.9112 | 12.5658 | 5.763 | 10.093 | 3.337 | 14.5573 | 7.717 | 26.197 | 19.1352 | 97.9682 | 89.5427 | 108.628 | 100 | –
BclXL: wild-type BclXL, druglow receptor | – | – | – | – | – | – | – | – | – | – | – | – | – | – | – | – | – | – | – | – | drug resistance to A-1155463 (binding response to LD3) ([4]; 5 µM BclXL or variant + 10 µM A-1155463): completely inhibited
